# Experimental data published in patent US10913734B2, “Substituted aminothiazoles” (BARUCH S. BLUMBERG INSTITUTE, priority 2016, dated 2021).
# Legend:
# [1] = MTT cell viability / cytotoxicity assay (CC50), 72 hours; type: cell-based; settings: human, 72 hours incubation, concentration that reduces signal of viable cells by 50%, table title names Huh-7, THLE2 and PH5CH cells, cell line not given
# Source text: (§1) Huh-7 cells and derived from hepatocellular carcinoma cells, and were donated by Dr. Xuanyong Lu, (Drexel University College of Medicine, Doylestown, Pa.). THLE-2 were purchased from American Type Culture Collection (Manassas, Va.). PH5CH were donated by Dr. Masayuki Noguchi (University of Tsukuba, Ibaraki, Japan). THLE-2 and PH5CH have been immortalized through stable transfection of the SV40 large T antigen in normal hepatocytes, and are thus cell lines that are representative of normal hepatocytes rather than HCC cells. […] All cell lines were cultured and maintained in 5% CO2 at 37° C. Huh-7 were maintained in the culture media DMEM/F12 (Dulbecco's Modified Eagle Medium) with 10% Fetal bovine serum (FBS), 100 µg/mL penicillin, 100 units/mL streptomycin, and 50 µg/mL normocin. THLE-2 and PH5CH were maintained in the culture media Brochial Epithelial Growth Media (BEGM) with 10% FBS, 100 µg/mL penicillin, 100 units/mL streptomycin, with the following additives form the prepackaged kit: Bovine pituitary extract (BPE), insulin, hydrocortisone, retinoic acid, transferrin, triiodothyronine, supplemented with 5 ng/ml human epidermal growth factor and 70 ng/ml phosphoethanolamine (Lonza Walkersville Inc., Walkersville, Md.).
# (§2) Huh7 cells were plated on 96-well plates at 2.0×10^4 cells per well to permit grow in the presence of compounds of the disclosure. Compounds of the disclosure were prediluted and transferred to cell plates by automated liquid handling. Cells were incubated with compounds of the disclosure for 72 hours, after which culture growth and viability were assessed by addition of 50 µg/mL 3-(4,5-Dimethyl-2-thiazolyl)-2,5-diphenyl-2H-tetrazolium bromide (MTT) incubation for 4 hours at 37° C. Solubilization buffer (0.01M HCl, 10% SDS) was added followed by incubation at 37° C. overnight. Absorbance was measured at 570 nm (reference 630 nm). Compound of the disclosure were tested in Huh7, THLE-2 and PH5CH, over eight-point dilutions in half-log steps, testing 50.0, 16.6, 5.0, 1.66, 0.5, 0.166, 0.05, and 0.016 µM in 0.5% DMSO, with each concentration in duplicate wells. […] Each compound was tested from 2 to 7 times in separate assay trials.
# [2] = system: THLE2 and/or PH5CH (normal hepatocyte-derived) cell versus Huh7; test: Selectivity of cytotoxicity: CC50 in normal hepatocyte-derived cells versus liver cancer derived cells (MTT assay); type: cell-based; settings: ratio of CC50 between Huh7 and THLE2 and/or PH5CH (normal hepatocyte-derived) cell
# Source text: as §1
# as §2, with “nm).” for “nm). Compound of the disclosure were tested in Huh7, THLE-2 and PH5CH, over eight-point dilutions in half-log steps, testing 50.0, 16.6, 5.0, 1.66, 0.5, 0.166, 0.05, and 0.016 µM in 0.5% DMSO, with each concentration in duplicate wells.”
# Selectivity of toxicity in HCC-derived cells over normal liver-derived cells is important for the purposes of developing a therapy that specifically targets the cancer with low toxcity for the […]. The Selective Index (SI) is the ratio of CC50 in normal cells (THLE2 or PHSCH) over the CC50 in the liver cancer derived cells; thus, the higher the number, the lower the potential toxicity at an efficacious dose.
# Selectivity in table 6 is defined as the ratio of CC50 between Huh7 and THLE2 and/or PH5CH (normal hepatocyte-derived) cell.
Structure (SMILES),CC50 at 72 h [1] [µM],Selectivity [2]
CC(C)OC(=O)OCN(c1ncccn1)c1nc(-c2cnccn2)c(C(=O)OC(C)C)s1 [Entry 26],< 50,>5.0
CC(C)OC(=O)c1sc(N(COP(=O)(OC(C)(C)C)OC(C)(C)C)c2ncccn2)nc1-c1cnccn1 [Entry 28],< 50,>5.0
O=C([O-])CCc1sc(Nc2ncccn2)nc1-c1ccccn1.[Na+] [Entry 12],–,≤5.0
CCOC(=O)Cc1sc(Nc2nccc(C)n2)nc1-c1ccccn1 [Entry 18],< 50,≤5.0
O=C(Nc1ncccn1)Nc1nc(-c2ccccn2)cs1 [Entry 3],≥ 50,≤5.0
CCOC(=O)c1sc(NCc2ncccn2)nc1-c1ccccn1 [Entry 17],≥ 50,≤5.0
CCOC(=O)c1sc(NCc2ncccn2)nc1-c1ncccc1C [Entry 5],≥ 50,≤5.0
CCOC(=O)c1sc(Nc2ncccn2)nc1-c1ccncn1 [Entry 23],< 50,>5.0
O=C(O)CCc1sc(Nc2ncccn2)nc1-c1ccccn1 [Entry 11],< 50,≤5.0
CCOCc1sc(Nc2nccc(C)n2)nc1-c1ccccn1 [Entry 7],< 50,≤5.0
CC(C)OC(=O)c1sc(N(COP(=O)(OC(C)(C)C)OC(C)(C)C)c2ncccn2)nc1-c1ccccn1 [Entry 27],< 50,>5.0
CCOC(=O)CCc1sc(NCc2ncccn2)nc1-c1ccccn1 [Entry 10],≥ 50,≤5.0
CC(C)OC(=O)C1=C(c2ccncn2)NC(Nc2ncccn2)S1 (stereo not drawn) [Entry 22],< 50,>5.0
O=C([O-])CCc1sc(NCc2ncccn2)nc1-c1ccccn1.[Na+] [Entry 14],–,≤5.0
O=C(O)CCc1sc(NCc2ncccn2)nc1-c1ccccn1 [Entry 13],≥ 50,≤5.0
CC(C)OC(=O)c1sc(Nc2ncccn2)nc1-c1cnccn1 [Entry 25],< 50,>5.0
CCOCc1sc(Nc2ncccn2)nc1-c1ccccn1 [Entry 6],< 50,>5.0
CC(C)OC(=O)c1sc(Nc2ncccn2)nc1-c1ncccn1 [Entry 19],< 50,>5.0
CCOC(=O)c1sc(Nc2ncccn2)nc1-c1cnccn1 [Entry 20],< 50,>5.0
CCOC(=O)Cc1sc(Nc2ncccn2)nc1-c1ccccn1 [Entry 15],< 50,>5.0
COCCOCN(c1ncccn1)c1nc(-c2cnccn2)c(C(=O)OC(C)C)s1 [Entry 29],≥ 50,≤5.0
CCOCc1sc(NCc2ncccn2)nc1-c1ccccn1 [Entry 8],≥ 50,≤5.0
CC(C)OC(=O)c1sc(Nc2ncccn2)nc1-c1ccccn1 [Entry 21],< 50,>5.0
CCOC(=O)c1sc(Nc2nccc(C)n2)nc1-c1ncccc1C [Entry 4],≥ 50,≤5.0
c1ccc(-c2csc(NCc3ncccn3)n2)nc1 [Entry 2],< 50,≤5.0
CCOC(=O)CCc1sc(Nc2ncccn2)nc1-c1ccccn1 [Entry 9],< 50,>5.0
CCOC(=O)c1sc(Nc2ncccn2)nc1-c1cc(C(F)(F)F)ccn1 [Entry 24],< 50,>5.0
CCOC(=O)Cc1sc(NCc2ncccn2)nc1-c1ccccn1 [Entry 16],< 50,≤5.0
